Reference: patent publication US8859559B2, “Substituted pyrazines and their use in the treatment of disease” (Boehringer Ingelheim International GmbH, priority 2011, dated 2014)

These compounds were tested against T1, ENaC (Epithelial Sodium Channel) (Mus musculus, UniProt Q61180+Q9WU38+Q9WU39) (assay: Ussing chamber: inhibition of amiloride sensitive short circuit current (I_sc) in M-1 cells). Conditions: mouse kidney M-1 cells.
T1 construct: Mouse kidney M-1 cells were cultivated in DMEM; endogenous in cells; host or cells: Mouse kidney M-1 cells (dexamethasone-treated, on transwell filters)
T1 sequence (Q61180 1-699): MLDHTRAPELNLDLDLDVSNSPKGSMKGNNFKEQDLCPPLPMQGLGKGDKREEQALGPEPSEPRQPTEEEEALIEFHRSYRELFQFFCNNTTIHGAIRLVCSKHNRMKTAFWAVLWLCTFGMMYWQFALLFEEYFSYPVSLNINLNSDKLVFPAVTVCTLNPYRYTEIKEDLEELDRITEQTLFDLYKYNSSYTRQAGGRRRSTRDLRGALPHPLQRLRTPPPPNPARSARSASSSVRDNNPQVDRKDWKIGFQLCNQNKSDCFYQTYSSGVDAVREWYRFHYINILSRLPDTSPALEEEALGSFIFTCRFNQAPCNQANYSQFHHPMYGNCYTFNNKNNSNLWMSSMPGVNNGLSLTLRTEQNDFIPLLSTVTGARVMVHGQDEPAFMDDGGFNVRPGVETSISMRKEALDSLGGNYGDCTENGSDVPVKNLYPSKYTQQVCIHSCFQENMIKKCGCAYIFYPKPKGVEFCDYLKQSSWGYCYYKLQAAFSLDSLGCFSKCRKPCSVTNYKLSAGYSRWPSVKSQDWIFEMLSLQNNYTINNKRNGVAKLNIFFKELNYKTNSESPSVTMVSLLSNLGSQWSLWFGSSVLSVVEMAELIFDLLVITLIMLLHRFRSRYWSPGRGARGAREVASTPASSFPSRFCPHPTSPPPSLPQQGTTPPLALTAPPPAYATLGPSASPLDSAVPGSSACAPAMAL
T1 sequence (Q9WU38 1-638): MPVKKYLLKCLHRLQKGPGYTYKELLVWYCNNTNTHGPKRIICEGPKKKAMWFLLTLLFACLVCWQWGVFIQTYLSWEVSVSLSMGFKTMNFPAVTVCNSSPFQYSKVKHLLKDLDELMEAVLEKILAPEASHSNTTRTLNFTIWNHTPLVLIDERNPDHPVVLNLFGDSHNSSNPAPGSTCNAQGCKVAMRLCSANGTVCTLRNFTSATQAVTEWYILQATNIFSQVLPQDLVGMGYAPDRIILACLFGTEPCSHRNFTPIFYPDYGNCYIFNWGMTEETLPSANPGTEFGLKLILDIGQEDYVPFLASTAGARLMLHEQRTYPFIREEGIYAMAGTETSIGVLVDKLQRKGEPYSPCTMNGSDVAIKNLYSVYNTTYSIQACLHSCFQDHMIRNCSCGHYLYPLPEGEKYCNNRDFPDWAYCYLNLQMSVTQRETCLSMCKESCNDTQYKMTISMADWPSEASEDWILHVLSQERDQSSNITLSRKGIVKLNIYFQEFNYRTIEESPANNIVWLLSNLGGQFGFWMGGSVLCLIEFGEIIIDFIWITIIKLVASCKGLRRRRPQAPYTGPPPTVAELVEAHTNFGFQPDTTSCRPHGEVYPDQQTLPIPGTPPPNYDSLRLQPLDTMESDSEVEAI
T1 sequence (Q9WU39 1-655): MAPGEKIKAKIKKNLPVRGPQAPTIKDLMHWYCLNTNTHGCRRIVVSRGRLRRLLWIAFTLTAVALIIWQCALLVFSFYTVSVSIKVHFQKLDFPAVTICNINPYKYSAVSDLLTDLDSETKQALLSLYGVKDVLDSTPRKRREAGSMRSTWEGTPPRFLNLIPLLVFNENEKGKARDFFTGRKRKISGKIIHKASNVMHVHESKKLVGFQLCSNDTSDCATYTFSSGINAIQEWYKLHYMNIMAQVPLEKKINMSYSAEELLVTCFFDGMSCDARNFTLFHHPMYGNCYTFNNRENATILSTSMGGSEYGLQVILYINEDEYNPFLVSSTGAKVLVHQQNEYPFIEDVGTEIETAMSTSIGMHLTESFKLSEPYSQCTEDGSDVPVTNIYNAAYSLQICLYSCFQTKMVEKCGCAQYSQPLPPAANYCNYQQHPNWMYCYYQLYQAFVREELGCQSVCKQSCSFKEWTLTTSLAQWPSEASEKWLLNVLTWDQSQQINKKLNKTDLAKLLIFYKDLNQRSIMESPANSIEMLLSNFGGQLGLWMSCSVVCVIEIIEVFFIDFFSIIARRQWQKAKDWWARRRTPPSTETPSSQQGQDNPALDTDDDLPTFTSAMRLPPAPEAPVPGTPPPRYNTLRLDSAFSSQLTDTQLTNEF
Type: cell-based
Protocol: Mouse kidney M-1 cells were cultivated in DMEM containing 5% FCS and 5 μM dexamethasone for 10 to 12 days on polyester transwell filters. Filters were inserted into a teflon-coated well-plate which fit into the in-house ussing chamber system. Prior to measurement the medium of M-1 cells was replaced with Caco-2 transport buffer (Invitrogen, Germany). During measurements, the Ussing chamber temperature was kept at 37° C. Short circuit currents (I_sc) were measured in the voltage-clamp mode using an in-house built amplifier (Boehringer Ingelheim, Biberach) with the software package Lab View for data acquisition and analysis. The transepithelial electrical resistance (TEER) was determined by the application of voltage steps of ±5 mV every 5 sec. Compounds were administered at a final concentration of 3 μM or at increasing concentrations (1-3-10 μM) to the apical solution. At the end of each experiment the amiloride sensitive I_SC was measured by adding 3 μM amiloride to the apical compartment. Results are expressed as inhibition in percent of the amiloride effect or as IC50. With the example compounds given above, the following IC50 values were determined in the Ussing Chamber assay: […]
An IC50 of 12 nM was found for `NC(=NC(=O)c1nc(Cl)c(N)nc1N)NC1CCN(Cc2ccc(OCc3cn(CCOCCOCCOCCO)nn3)cc2)CC1` [Example 3.21] in this work.
An IC50 of 2 nM was found for `[N-]=[N+]=NCCOCCOCCOCCn1cc(COc2ccc(CN3CCC(NC(N)=NC(=O)c4nc(Cl)c(N)nc4N)CC3)cc2)nn1` [Example 3.22] in this work.
An IC50 of 13 nM was found for `NC(=NC(=O)c1nc(Cl)c(N)nc1N)NC1CCN(Cc2ccc(OCc3cn(CCOCCOCCOCCOCCOCCOC(c4ccccc4)(c4ccccc4)c4ccccc4)nn3)cc2)CC1` [Example 3.23] in this work.
An IC50 of 25 nM was found for `NC(=NC(=O)c1nc(Cl)c(N)nc1N)NC1CCN(Cc2ccc(OCc3cn(CCOCCOCCO)nn3)cc2)CC1` [Example 3.24] in this work.
An IC50 of 8 nM was found for `NC(=NC(=O)c1nc(Cl)c(N)nc1N)NC1CCN(Cc2ccc(-c3cn(CCOCCOCCOCCO)nn3)cc2)CC1` [Example 3.26] in this work.
An IC50 of 1 nM was found for `NC(=NC(=O)c1nc(Cl)c(N)nc1N)NC1CCN(Cc2ccc(-c3cn(CCOCCOCCOCCOCCOCCO)nn3)cc2)CC1` [Example 3.27] in this work.
An IC50 of 6 nM was found for `NC(=NC(=O)c1nc(Cl)c(N)nc1N)NC1CCN(Cc2ccc(-c3cn(CCOCCOCCOC(c4ccccc4)(c4ccccc4)c4ccccc4)nn3)cc2)CC1` [Example 3.28] in this work.
An IC50 of 12 nM was found for `NC(=NC(=O)c1nc(Cl)c(N)nc1N)NC1CCN(Cc2ccc(-c3cn(CCOCCOCCOCCOCCOCCOCCOCCO)nn3)cc2)CC1` [Example 3.29] in this work.
An IC50 of 1 nM was found for `NC(=NC(=O)c1nc(Cl)c(N)nc1N)NC1CCN(Cc2ccc(-c3cn(CCOCCOC(c4ccccc4)(c4ccccc4)c4ccccc4)nn3)cc2)CC1` [Example 3.30] in this work.
An IC50 of 49 nM was found for `NC(=NC(=O)c1nc(Cl)c(N)nc1N)NC1CCN(Cc2ccc(-c3cn(CCOCCOCCOCCNC(=O)c4cc(OCCOCCOCCOCCOC(c5ccccc5)(c5ccccc5)c5ccccc5)cc(OCCOCCOCCOCCOC(c5ccccc5)(c5ccccc5)c5ccccc5)c4)nn3)cc2)CC1` [Example 3.31] in this work.
An IC50 of 25 nM was found for `[N-]=[N+]=NCCOCCOCCOCCn1cc(-c2ccc(CN3CCC(NC(N)=NC(=O)c4nc(Cl)c(N)nc4N)CC3)cc2)nn1` [Example 3.32] in this work.
An IC50 of 4 nM was found for `NC(=NC(=O)c1nc(Cl)c(N)nc1N)NC1CCN(Cc2ccc(-c3cn(CCOCCOCCOCCNCCOCCOCCO)nn3)cc2)CC1` [Example 3.35] in this work.
An IC50 of 4 nM was found for `NC(=NC(=O)c1nc(Cl)c(N)nc1N)NC1CCN(Cc2cccc(-c3cn(CCOCCOCCOCCO)nn3)c2)CC1` [Example 3.36] in this work.
An IC50 of 9 nM was found for `NC(=NC(=O)c1nc(Cl)c(N)nc1N)NC1CCN(Cc2cccc(-c3cn(CCOCCOCCOCCOCCOCCOC(c4ccccc4)(c4ccccc4)c4ccccc4)nn3)c2)CC1` [Example 3.37] in this work.
An IC50 of 1 nM was found for `CC[N+](CC)(CC)Cc1ccc(CCn2cc(-c3cccc(CN4CCC(NC(N)=NC(=O)c5nc(Cl)c(N)nc5N)CC4)c3)nn2)cc1` [Example 3.38] in this work.
An IC50 of 1 nM was found for `NC(=NC(=O)c1nc(Cl)c(N)nc1N)NC1CCN(Cc2cccc(-c3cn(CCOCCOCCOCCNCCOCCOCCOC(c4ccccc4)(c4ccccc4)c4ccccc4)nn3)c2)CC1` [Example 3.40] in this work.
An IC50 of 10 nM was found for `NC(=NC(=O)c1nc(Cl)c(N)nc1N)NC1CCN(Cc2ccc(C(=O)OCCCCc3cn(CCOCCOCCOCCO)nn3)cc2)CC1` [Example 3.42] in this work.
An IC50 of 15 nM was found for `NC(=NC(=O)c1nc(Cl)c(N)nc1N)NC1CCN(Cc2ccc(CCn3cc(CCC(=O)N4CCOCC4)nn3)cc2)CC1` [Example 3.43] in this work.
An IC50 of 16 nM was found for `CC(=O)N1CCN(C(=O)CCc2cn(CCc3ccc(CN4CCC(NC(N)=NC(=O)c5nc(Cl)c(N)nc5N)CC4)cc3)nn2)CC1` [Example 3.44] in this work.
An IC50 of 9 nM was found for `CN(Cc1cn(CCc2ccc(CN3CCC(N/C(N)=N/C(=O)c4nc(Cl)c(N)nc4N)CC3)cc2)nn1)C(=O)CCN` [Example 4.1] in this work.
An IC50 of 4 nM was found for `CN(Cc1cn(-c2ccc(CN3CCC(NC(N)=NC(=O)c4nc(Cl)c(N)nc4N)CC3)cc2)nn1)C(=O)CCN` [Example 4.2] in this work.
An IC50 of 42 nM was found for `N/C(=N\C(=O)c1nc(Cl)c(N)nc1N)NC1CCN(Cc2ccc(OCc3cn(CCOCCOCCOCCOCCOCCO)nn3)cc2)CC1` [Example 5.1] in this work.
An IC50 of 14 nM was found for `CN(Cc1cn(CCc2ccc(CN3CCC(NC(N)=NC(=O)c4nc(Cl)c(N)nc4N)CC3)cc2)nn1)C(=O)CCNCCOCCOCCOCCO` [Example 5.2] in this work.
An IC50 of 2 nM was found for `CN(Cc1cn(-c2ccc(CN3CCC(NC(N)=NC(=O)c4nc(Cl)c(N)nc4N)CC3)cc2)nn1)C(=O)CCNCCOCCOCCOCCO` [Example 5.3] in this work.
An IC50 of 3 nM was found for `N/C(=N\C(=O)c1nc(Cl)c(N)nc1N)NC1CCN(Cc2ccc(-c3cn(CCOCCOCCO)nn3)cc2)CC1` [Example 5.4] in this work.
An IC50 of 109 nM was found for `NC(=NC(=O)c1nc(Cl)c(N)nc1N)NC1CCN(Cc2ccc(-c3cn(CCOCCOCCOCCNC(=O)c4cc(OCCOCCOCCOCCO)cc(OCCOCCOCCOCCO)c4)nn3)cc2)CC1` [Example 5.5] in this work.
An IC50 of 3 nM was found for `NC(=NC(=O)c1nc(Cl)c(N)nc1N)NC1CCN(Cc2ccc(-c3cn(CCOCCO)nn3)cc2)CC1` [Example 5.6] in this work.
An IC50 of 45 nM was found for `NC(=NC(=O)c1nc(Cl)c(N)nc1N)NC1CCN(Cc2ccc(-c3cn(CCOCCOCCOCCNC(=O)c4cc(OCCOCCOCCO)cc(OCCOCCOCCO)c4)nn3)cc2)CC1` [Example 5.7] in this work.
An IC50 of 52 nM was found for `NC(=NC(=O)c1nc(Cl)c(N)nc1N)NC1CCN(Cc2ccc(OCc3cn(CCOCCOCCOCCNC(=O)c4cc(OCCOCCOCCO)cc(OCCOCCOCCO)c4)nn3)cc2)CC1` [Example 5.8] in this work.
An IC50 of 10 nM was found for `NC(=NC(=O)c1nc(Cl)c(N)nc1N)NC1CCN(Cc2cccc(-c3cn(CCOCCOCCOCCOCCOCCO)nn3)c2)CC1` [Example 5.9] in this work.
An IC50 of 31 nM was found for `NC(=NC(=O)c1nc(Cl)c(N)nc1N)NC1CCN(Cc2cccc(-c3cn(CCOCCOCCOCCNC(=O)c4cc(OCCOCCOCCO)cc(OCCOCCOCCO)c4)nn3)c2)CC1` [Example 5.10] in this work.
An IC50 of 7 nM was found for `NC(=NC(=O)c1nc(Cl)c(N)nc1N)NC1CCN(Cc2cccc(-c3cn(CCOCCOCCOCCNCCOCCOCCO)nn3)c2)CC1` [Example 5.11] in this work.
An IC50 of 62 nM was found for `NC(=NC(=O)c1nc(Cl)c(N)nc1N)NC1CCN(Cc2cccc(-c3cn(CCOCCOCCOCCNC(=O)c4cc(OCCOCCOCCOCCO)cc(OCCOCCOCCOCCO)c4)nn3)c2)CC1` [Example 5.12] in this work.
An IC50 of 477 nM was found for `N/C(=N\C(=O)c1nc(Cl)c(N)nc1N)NC1CCN(Cc2ccc(CP(=O)(O)O)cc2)CC1` [Example 7.1] in this work.
An IC50 of 136 nM was found for `N/C(=N\C(=O)c1nc(Cl)c(N)nc1N)NC1CCN(C(C(=O)O)c2ccccc2)CC1` (stereo not drawn) [Example 8.1] in this work.
An IC50 of 210 nM was found for `NC(=NC(=O)c1nc(Cl)c(N)nc1N)NC1CCN(Cc2ccc(-n3cc(C(=O)O)ccc3=O)cc2)CC1` [Example 8.4] in this work.
